Assay results reported in US9593108B2, “Compounds and methods for antiviral treatment” (PTC Therapeutics, Inc., priority 2009, dated 2017).

Tests used:
[1] = test system: HCV replicon RNA (GenBank Accession No. AJ242654); experiment: HCV Replicon Assay (replicon RNA reduction and/or Fluc reporter signal); type: cell-based, Hepatitis C virus; conditions: Hepatitis C virus, 72 h, replicon-containing cells cultured with test compound for up to 3 days
Method in brief: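 IC50 values mostly reflect the drop in replicon RNA, though Fluc reporter signal may also be used. Compound incubated with cells carrying the bicistronic replicon for as long as 3 days; interferon served as positive control.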

Molecule Cc1cnc2c(c1)c(C#N)c(-c1ccc(S(=O)(=O)N[C@@H](C)C(F)(F)F)cn1)n2-c1cncs1 [Cpd 430, 6-[3-cyano-5-methyl-1-(1,3-thiazol-5-yl)-1H-pyrrolo[2,3-b]pyridin-2-yl]-N-[(2S)-1,1,1-trifluoropropan-2-yl]pyridine-3-sulfonamide] has a melting point of 176 to 178 °C and an IC50 [1] of under 500 nM.
Work on Cc1cnc2c(c1)c(C#N)c(-c1ccc(S(=O)(=O)N[C@@H](C)C(F)(F)F)cn1)n2-c1ccncn1 [Cpd 431, 6-[3-cyano-5-methyl-1-(pyrimidin-4-yl)-1H-pyrrolo[2,3-b]pyridin-2-yl]-N-[(2S)-1,1,1-trifluoropropan-2-yl]pyridine-3-sulfonamide] yielded a melting point of 233 to 235 °C and an IC50 [1] of under 500 nM.
With Cc1cnc2c(c1)c(C#N)c(-c1ccc(S(=O)(=O)N[C@@H](C)C(F)(F)F)cn1)n2-c1ccc(F)cn1 [Cpd 432, 6-[3-cyano-1-(5-fluoropyridin-2-yl)-5-methyl-1H-pyrrolo[2,3-b]pyridin-2-yl]-N-[(2S)-1,1,1-trifluoropropan-2-yl]pyridine-3-sulfonamide] the melting point was 199 to 200 °C and the IC50 [1] was under 500 nM.
For Cc1cnc2c(c1)c(C#N)c(-c1ccc(S(=O)(=O)N[C@@H](C)C(F)(F)F)cn1)n2-c1cc(C(F)(F)F)ccn1 [Cpd 433, 6-{3-cyano-5-methyl-1-[4-(trifluoromethyl)pyridin-2-yl]-1H-pyrrolo[2,3-b]pyridin-2-yl}-N-[(2S)-1,1,1-trifluoropropan-2-yl]pyridine-3-sulfonamide], the melting point was 192 to 194 °C and the IC50 [1] was under 500 nM.
Work on Cc1cnc2c(c1)c(C#N)c(-c1ccc(S(=O)(=O)N[C@@H](C)C(F)(F)F)cn1)n2-c1cc(N)ccn1 [Cpd 434, 6-[1-(4-aminopyridin-2-yl)-3-cyano-5-methyl-1H-pyrrolo[2,3-b]pyridin-2-yl]-N-[(2S)-1,1,1-trifluoropropan-2-yl]pyridine-3-sulfonamide] yielded a melting point of 202 to 203 °C and an IC50 [1] of 2000 to 5000 nM.
In the case of Cc1cnc2c(c1)c(C#N)c(-c1ccc(S(=O)(=O)N[C@@H](C)C(F)(F)F)cn1)n2-c1ncc(Br)cn1 [Cpd 435, 6-[1-(5-bromopyrimidin-2-yl)-3-cyano-5-methyl-1H-pyrrolo[2,3-b]pyridin-2-yl]-N-[(2S)-1,1,1-trifluoropropan-2-yl]pyridine-3-sulfonamide], the melting point is reported as 169 to 171 °C and the IC50 [1] is reported as 500 to 2000 nM.
Cc1cnc2c(c1)c(C#N)c(-c1ccc(S(=O)(=O)N[C@@H](C)C(F)(F)F)cn1)n2-c1ccnnc1 [Cpd 436, 6-[3-cyano-5-methyl-1-(pyridazin-4-yl)-1H-pyrrolo[2,3-b]pyridin-2-yl]-N-[(2S)-1,1,1-trifluoropropan-2-yl]pyridine-3-sulfonamide] gave a melting point of 196 to 198 °C and an IC50 [1] of under 500 nM.
Molecule C[C@H](NS(=O)(=O)c1ccc(-c2c(C(N)=O)c3cc(C(F)(F)F)cnc3n2C2CCCCC2)cc1)C(F)(F)F [Cpd 437, 1-cyclohexyl-5-(trifluoromethyl)-2-(4-{[(2S)-1,1,1-trifluoropropan-2-yl]sulfamoyl}phenyl)-1H-pyrrolo[2,3-b]pyridine-3-carboxamide] has a melting point of 291 to 293 °C and an IC50 [1] of under 500 nM.
Molecule CC(C)(NS(=O)(=O)c1ccc(-c2c(C(N)=O)c3cc(C(F)(F)F)cnc3n2C2CCCCC2)nc1)C(F)(F)F [Cpd 438, 1-cyclohexyl-5-(trifluoromethyl)-2-{5-[(1,1,1-trifluoro-2-methylpropan-2-yl)sulfamoyl]pyridin-2-yl}-1H-pyrrolo[2,3-b]pyridine-3-carboxamide] has a melting point of 250 to 252 °C and an IC50 [1] of under 500 nM.
CC(C)(NS(=O)(=O)c1ccc(-c2c(C(N)=O)c3cc(C(F)(F)F)cnc3n2C2CCCCC2)cc1)C(F)(F)F [Cpd 439, 1-cyclohexyl-5-(trifluoromethyl)-2-{4-[(1,1,1-trifluoro-2-methylpropan-2-yl)sulfamoyl]phenyl}-1H-pyrrolo[2,3-b]pyridine-3-carboxamide] gave a melting point of 280 to 283 °C and an IC50 [1] of under 500 nM.
Molecule NC(=O)c1c(-c2ccc(S(=O)(=O)NC3(C(F)(F)F)CC3)cn2)n(C2CCCCC2)c2ncc(C(F)(F)F)cc12 [Cpd 440, 1-cyclohexyl-5-(trifluoromethyl)-2-(5-{[1-(trifluoromethyl)cyclopropyl]sulfamoyl}pyridin-2-yl)-1H-pyrrolo[2,3-b]pyridine-3-carboxamide] has a melting point of 272 to 275 °C and an IC50 [1] of under 500 nM.
In the case of NC(=O)c1c(-c2ccc(S(=O)(=O)NC3(C(F)(F)F)CC3)cc2)n(C2CCCCC2)c2ncc(C(F)(F)F)cc12 [Cpd 441, 1-cyclohexyl-5-(trifluoromethyl)-2-(4-{[1-(trifluoromethyl)cyclopropyl]sulfamoyl}phenyl)-1H-pyrrolo[2,3-b]pyridine-3-carboxamide], the melting point is reported as 303 to 306 °C and the IC50 [1] is reported as under 500 nM.
In the case of CC1(NS(=O)(=O)c2ccc(-c3c(C(N)=O)c4cc(C(F)(F)F)cnc4n3C3CCCCC3)cc2)CC1 [Cpd 442, 1-cyclohexyl-2-{4-[(1-methylcyclopropyl)sulfamoyl]phenyl}-5-(trifluoromethyl)-1H-pyrrolo[2,3-b]pyridine-3-carboxamide], the melting point is reported as 284 to 286 °C and the IC50 [1] is reported as under 500 nM.
Work on CC(C)(C)NS(=O)(=O)c1ccc(-c2c(C(N)=O)c3cc(C(F)(F)F)cnc3n2C2CCCCC2)cc1 [Cpd 443, 2-[4-(tert-butylsulfamoyl)phenyl]-1-cyclohexyl-5-(trifluoromethyl)-1H-pyrrolo[2,3-b]pyridine-3-carboxamide] yielded a melting point of 290 to 292 °C and an IC50 [1] of under 500 nM.
C[C@@H](NS(=O)(=O)c1ccc(-c2c(C(N)=O)c3cc(C(F)(F)F)cnc3n2C2CCCCC2)cc1)C(F)(F)F [Cpd 444, 1-cyclohexyl-5-(trifluoromethyl)-2-(4-{[(2R)-1,1,1-trifluoropropan-2-yl]sulfamoyl}phenyl)-1H-pyrrolo[2,3-b]pyridine-3-carboxamide] gave a melting point of 285 to 287 °C and an IC50 [1] of under 500 nM.
Work on CC(C)S(=O)(=O)Nc1ccc(-c2c(C(N)=O)c3cc(C(F)(F)F)cnc3n2C2CCCCC2)cc1 [Cpd 446, 1-cyclohexyl-2-{4-[(propan-2-ylsulfonyl)amino]phenyl}-5-(trifluoromethyl)-1H-pyrrolo[2,3-b]pyridine-3-carboxamide] yielded a melting point of 203 to 205 °C and an IC50 [1] of under 500 nM.
Work on CC1(S(=O)(=O)Nc2ccc(-c3c(C(N)=O)c4cc(C(F)(F)F)cnc4n3C3CCCCC3)cc2)CC1 [Cpd 447, 1-cyclohexyl-2-(4-{[(1-methylcyclopropyl)sulfonyl]amino}phenyl)-5-(trifluoromethyl)-1H-pyrrolo[2,3-b]pyridine-3-carboxamide] yielded a melting point of 268 to 270 °C and an IC50 [1] of under 500 nM.
NC(=O)c1c(-c2ccc(NS(=O)(=O)C3CC3)cc2)n(C2CCCCC2)c2ncc(C(F)(F)F)cc12 [Cpd 448, 1-cyclohexyl-2-{4-[(cyclopropylsulfonyl)amino]phenyl}-5-(trifluoromethyl)-1H-pyrrolo[2,3-b]pyridine-3-carboxamide] gave a melting point of 220 to 222 °C and an IC50 [1] of 500 to 2000 nM.
NC(=O)c1c(-c2ccc(NS(=O)(=O)C3CCC3)cc2)n(C2CCCCC2)c2ncc(C(F)(F)F)cc12 [Cpd 449, 2-{4-[(cyclobutylsulfonyl)amino]phenyl}-1-cyclohexyl-5-(trifluoromethyl)-1H-pyrrolo[2,3-b]pyridine-3-carboxamide] gave a melting point of 256 to 258 °C and an IC50 [1] of 500 to 2000 nM.
With Cc1cnc2c(c1)c(C#N)c(-c1ccc(S(=O)(=O)N[C@@H](C)C(F)(F)F)cn1)n2-c1nccs1 [Cpd 450, 6-[3-cyano-5-methyl-1-(1,3-thiazol-2-yl)-1H-pyrrolo[2,3-b]pyridin-2-yl]-N-[(2S)-1,1,1-trifluoropropan-2-yl]pyridine-3-sulfonamide] the melting point was 208 to 210 °C and the IC50 [1] was under 500 nM.
C[C@H](NS(=O)(=O)c1ccc(-c2c(C#N)c3cc(C(F)F)cnc3n2C2CCC2)nc1)C(F)(F)F [Cpd 452, 6-[3-cyano-1-cyclobutyl-5-(difluoromethyl)-1H-pyrrolo[2,3-b]pyridin-2-yl]-N-[(2S)-1,1,1-trifluoropropan-2-yl]pyridine-3-sulfonamide] showed a melting point of 158 to 159 °C and an IC50 [1] of under 500 nM.
C[C@H](NS(=O)(=O)c1ccc(-c2c(C#N)c3cc(C(F)F)cnc3n2C2CCC2)cc1)C(F)(F)F [Cpd 453, 4-[3-cyano-1-cyclobutyl-5-(difluoromethyl)-1H-pyrrolo[2,3-b]pyridin-2-yl]-N-[(2S)-1,1,1-trifluoropropan-2-yl]benzenesulfonamide] gave a melting point of 203 to 205 °C and an IC50 [1] of under 500 nM.
With C[C@H](NS(=O)(=O)c1cnc(-c2c(C#N)c3cc(C(F)F)cnc3n2C2CCC2)nc1)C(F)(F)F [Cpd 454, 2-[3-cyano-1-cyclobutyl-5-(difluoromethyl)-1H-pyrrolo[2,3-b]pyridin-2-yl]-N-[(2S)-1,1,1-trifluoropropan-2-yl]pyrimidine-5-sulfonamide] the melting point was 155 to 156 °C and the IC50 [1] was under 500 nM.
With CC(C)NS(=O)(=O)c1ccc(-c2c(C#N)c3cc(C(F)F)cnc3n2C2CCC2)nc1 [Cpd 455, 6-[3-cyano-1-cyclobutyl-5-(difluoromethyl)-1H-pyrrolo[2,3-b]pyridin-2-yl]-N-(propan-2-yl)pyridine-3-sulfonamide] the melting point was 189 to 190 °C and the IC50 [1] was under 500 nM.
C[C@H](NS(=O)(=O)c1ccc(-c2c(C#N)c3cc(C(F)F)cnc3n2C2CCC2)nc1)C1CC1 [Cpd 458, 6-[3-cyano-1-cyclobutyl-5-(difluoromethyl)-1H-pyrrolo[2,3-b]pyridin-2-yl]-N-[(1S)-1-cyclopropylethyl]pyridine-3-sulfonamide] gave a melting point of 164 to 165 °C and an IC50 [1] of under 500 nM.
In the case of CC(C)S(=O)(=O)Nc1ccc(-c2c(C#N)c3cc(C(F)F)cnc3n2C2CCC2)cc1 [Cpd 459, N-{4-[3-cyano-1-cyclobutyl-5-(difluoromethyl)-1H-pyrrolo[2,3-b]pyridin-2-yl]phenyl}propane-2-sulfonamide], the melting point is reported as 179 to 180 °C and the IC50 [1] is reported as under 500 nM.
